Test systems include UO-31 renal; SN12C renal; A549 NSCLC; SNB-75 CNS; OVCAR-3 ovarian; EKVX NSCLC; HOP-92 NSCLC; MDA-MB-231 breast; DU-145 prostate; T-47D breast.
Test in all cases: NCI tumour cell line growth inhibition, 48 h

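1) Cells in 96-well plates. 2) Compound, 48 h, 5 concentrations. 3) Linear interpolation between surrounding doses. 4) Unreached endpoint = highest concentration. GI50 is the concentration that inhibits growth by half. TGI: total growth inhibition.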

Consider `Cc1cc2c(cc1C)[n+](=O)c(C(=O)/C=C/c1ccccc1Cl)c(C)n2[O-]`, for which the TGI in the test on UO-31 renal is 48.2 µM; with SN12C renal, over 100 µM; with A549 NSCLC, over 100 µM; in the test with SNB-75 CNS, 47.5 µM; with OVCAR-3 ovarian, 88.8 µM; in the test with EKVX NSCLC, over 100 µM.

Regarding `O=C(O)C1OC(Oc2cc(O)c3c(=O)cc(-c4ccc(O)cc4)oc3c2)C(O)C(O)C1O` (stereo not drawn), the TGI in the test with UO-31 renal, in the test on SN12C renal, in the test on A549 NSCLC, with SNB-75 CNS, in the test on OVCAR-3 ovarian and in the test on EKVX NSCLC was over 100 µM each time.

With `COc1cc(-c2cc(CCC(=O)Nc3ccccc3[N+](=O)[O-])n(-c3ccc([N+](=O)[O-])cc3[N+](=O)[O-])n2)ccc1O`, the GI50 in the test on UO-31 renal is over 100 µM; with HOP-92 NSCLC, over 100 µM; in the test with SN12C renal it was over 100 µM; with A549 NSCLC, over 100 µM; with SNB-75 CNS, over 10 µM; in the test on EKVX NSCLC, over 100 µM. Besides, the TGI is over 100 µM in the test with UO-31 renal; over 100 µM with HOP-92 NSCLC; over 100 µM with SN12C renal; over 100 µM with A549 NSCLC; over 100 µM with SNB-75 CNS; over 10 µM in the test with OVCAR-3 ovarian. The same compound displayed a TGI in the test with EKVX NSCLC of over 100 µM.

For `Cc1cccc(NC(=O)CC#N)c1Cl`, the TGI in the test on UO-31 renal, in the test with HOP-92 NSCLC, in the test on SN12C renal, in the test on A549 NSCLC, in the test with SNB-75 CNS and with OVCAR-3 ovarian was over 100 µM throughout. For the same compound, the TGI in the test with EKVX NSCLC was over 100 µM.

Regarding `N#CC1=C(c2ccccc2)C(O)(c2ccccc2)NC1=O` (stereo not drawn), the TGI is over 100 µM in the test with UO-31 renal; 75.2 µM in the test with HOP-92 NSCLC; over 100 µM in the test with SN12C renal; over 100 µM with A549 NSCLC; over 100 µM in the test on SNB-75 CNS; over 100 µM in the test with OVCAR-3 ovarian. In the test with EKVX NSCLC, this compound returned a TGI of over 100 µM.

As to `O=CC1(C2(C=O)c3ccccc3-c3ccccc32)c2ccccc2-c2ccccc21`, the GI50 in the test with MDA-MB-231 breast is 2.8 µM; with UO-31 renal it was 1.92 µM; with HOP-92 NSCLC, 1.58 µM; in the test on SN12C renal, 2.34 µM; in the test on SNB-75 CNS, 3.29 µM; in the test with DU-145 prostate, 2.29 µM. For the same compound, the GI50 was 1.4 µM with OVCAR-3 ovarian and 1.96 µM with EKVX NSCLC. The TGI in the test with MDA-MB-231 breast amounted to 6.98 µM; in the test with UO-31 renal, 4.32 µM; in the test with HOP-92 NSCLC it was 3.83 µM; in the test with SN12C renal, 5.83 µM; in the test on SNB-75 CNS, 8.08 µM; in the test with DU-145 prostate, 5.83 µM. For the same compound, the results for the TGI with OVCAR-3 ovarian and in the test with EKVX NSCLC were 3.39 µM and 5.24 µM, respectively.

Take `Oc1cc2c(cc1O)-c1[nH]ncc1CC2`: the TGI with UO-31 renal is 79.1 µM; in the test with HOP-92 NSCLC, 66.4 µM; with SN12C renal it was over 100 µM; in the test with A549 NSCLC, over 100 µM; with SNB-75 CNS, 70.5 µM; in the test on EKVX NSCLC it was 61.1 µM.

Consider `CC(C)CC(=O)NS(=O)(=O)c1ccccc1`, for which the TGI in the test on UO-31 renal, with HOP-92 NSCLC, in the test on SN12C renal, in the test with A549 NSCLC, with SNB-75 CNS and in the test with OVCAR-3 ovarian was over 100 µM in each case. The TGI in the test on EKVX NSCLC was over 100 µM.

Consider `O=C([O-])c1ccccc1Nc1ccccc1[O-].[Ni+3].[OH3+].[OH3+].[OH3+]`, for which the GI50 is over 100 µM with UO-31 renal; 31.4 µM with HOP-92 NSCLC; over 100 µM in the test with SN12C renal; over 100 µM with A549 NSCLC; over 100 µM with OVCAR-3 ovarian; over 100 µM in the test on EKVX NSCLC. Besides, the TGI in the test on UO-31 renal, with HOP-92 NSCLC, in the test on SN12C renal, in the test on A549 NSCLC, in the test with OVCAR-3 ovarian and in the test on EKVX NSCLC was over 100 µM in each case.

`CSc1nc2c(c(=O)[nH]1)C(c1ccc(Cl)cc1)C1=C(N2)/C(=C/c2ccc(Cl)cc2)CNC1` (stereo not drawn): the GI50 was 1.75 µM in the test on MDA-MB-231 breast; 1.43 µM with UO-31 renal; 2.06 µM in the test with SN12C renal; 2.21 µM with A549 NSCLC; 2.69 µM with SNB-75 CNS; 3.36 µM with DU-145 prostate. Also, the GI50 in the test on OVCAR-3 ovarian was 2.23 µM; in the test on T-47D breast, 3.65 µM. Also, the TGI turned out to be 4.48 µM in the test on MDA-MB-231 breast; 2.91 µM in the test with UO-31 renal; 4.7 µM with SN12C renal; 5.91 µM with A549 NSCLC; 11.5 µM in the test on SNB-75 CNS; 11.6 µM in the test on DU-145 prostate. Further, the values for the TGI with OVCAR-3 ovarian and in the test with T-47D breast were 5.19 µM and 15.7 µM, respectively.

In the case of `O=C(c1ccc2c3c(ccc(C(=O)C(F)(F)F)c13)CC2)C(F)(F)F`, the TGI was over 100 µM in the test on UO-31 renal; 76.2 µM in the test with HOP-92 NSCLC; over 100 µM in the test with SN12C renal; over 100 µM with A549 NSCLC; over 100 µM in the test with SNB-75 CNS; over 100 µM in the test with OVCAR-3 ovarian. Further, the TGI in the test with EKVX NSCLC was over 100 µM.

As for `CC(Oc1ccc2cc(C(=O)c3ccccc3)c(=O)oc2c1)C(=O)O` (stereo not drawn), the TGI in the test with UO-31 renal, in the test on HOP-92 NSCLC, with SN12C renal, in the test on A549 NSCLC, in the test on SNB-75 CNS and in the test with OVCAR-3 ovarian was over 100 µM in each case. Moreover, the TGI in the test with EKVX NSCLC is over 100 µM.

In the case of `ClC[Si]12OCCN(CCO1)CCO2`, the TGI with UO-31 renal, in the test on HOP-92 NSCLC, in the test with SN12C renal, in the test with A549 NSCLC, with SNB-75 CNS and in the test with OVCAR-3 ovarian was over 100 µM each time.

Take `CC1(C)OC(=O)C(=C2CC(c3ccccc3)c3ccccc32)C(=O)O1` (stereo not drawn): the TGI with UO-31 renal, in the test on HOP-92 NSCLC, in the test with SN12C renal, with A549 NSCLC, in the test on SNB-75 CNS and in the test on OVCAR-3 ovarian was over 100 µM throughout. Further, the TGI with EKVX NSCLC was over 100 µM.

Source of the values: PubChem BioAssay (NCI).
